Assay results published in PubChem BioAssay AID256 (DTP/NCI, 2004).
Several values for one entry are separate records, joined by “and”; a condition that tells them apart may be missing. Equal values may be shown once. Toxic doses and inconclusive results are not listed. The calls were made as follows: active = survival T/C of 150% or more; inactive = T/C below 125% in these data.

Test system: CD2F1 mice, L1210 leukemia ip, survival T/C
Assay: NCI In Vivo Anticancer Drug Screen. Data for tumor model L1210 Leukemia (intraperitoneal) in CD2F1 (CDF1) mice
Conditions: higher = longer survival
Method in brief: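 Ratio T/C, where T is the treated-group value and C the vehicle-dosed control value, from mice implanted with a transplantable tumor.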

[1] = endpoint: mean survival time, dose: 100.0 mg/kg/injection, schedule: Q01DX009 (ip), vehicle: saline with Tween-80
[2] = endpoint: mean survival time, dose: 200.0 mg/kg/injection, schedule: Q01DX009 (ip), vehicle: saline with Tween-80
[3] = endpoint: mean survival time, dose: 400.0 mg/kg/injection, schedule: Q01DX009 (ip), vehicle: saline with Tween-80
[4] = endpoint: mean survival time, dose: 100.0 mg/kg/injection, schedule: Q04DX003 (ip), vehicle: Klucel (hydroxypropylcellulose) (HPC)
[5] = endpoint: mean survival time, dose: 200.0 mg/kg/injection, schedule: Q04DX003 (ip), vehicle: Klucel (hydroxypropylcellulose) (HPC)
[6] = endpoint: mean survival time, dose: 100.0 mg/kg/injection, schedule: Q04DX003 (ip), vehicle: saline with Tween-80
[7] = endpoint: mean survival time, dose: 200.0 mg/kg/injection, schedule: Q04DX003 (ip), vehicle: saline with Tween-80
[8] = endpoint: mean survival time, dose: 400.0 mg/kg/injection, schedule: Q04DX003 (ip), vehicle: saline with Tween-80
[9] = endpoint: mean survival time, dose: 100.0 mg/kg/injection, schedule: Q01DX001 (ip), vehicle: saline
[10] = endpoint: mean survival time, dose: 200.0 mg/kg/injection, schedule: Q01DX001 (ip), vehicle: saline
[11] = endpoint: mean survival time, dose: 25.0 mg/kg/injection, schedule: Q01DX009 (ip), vehicle: saline with Tween-80
[12] = endpoint: mean survival time, dose: 50.0 mg/kg/injection, schedule: Q01DX009 (ip), vehicle: saline with Tween-80
[13] = endpoint: mean survival time, dose: 75.0 mg/kg/injection, schedule: Q01DX001 (ip), vehicle: saline
[14] = endpoint: mean survival time, dose: 150.0 mg/kg/injection, schedule: Q01DX001 (ip), vehicle: saline
[15] = endpoint: mean survival time, dose: 300.0 mg/kg/injection, schedule: Q01DX001 (ip), vehicle: saline

Measured: T/C

CN(C(N)=O)C1CCCC1
inactive: endpoint: mean survival time, dose: 100.0 mg/kg/injection, schedule: Q01DX009 (ip), vehicle: saline 102 % of control | endpoint: mean survival time, dose: 200.0 mg/kg/injection, schedule: Q01DX009 (ip), vehicle: saline 105 % of control | endpoint: mean survival time, dose: 400.0 mg/kg/injection, schedule: Q01DX009 (ip), vehicle: saline 107 % of control

Fc1c(F)c(F)c([Si](c2c(F)c(F)c(F)c(F)c2F)(c2c(F)c(F)c(F)c(F)c2F)c2c(F)c(F)c(F)c(F)c2F)c(F)c1F
inactive: [1] 97 % of control | [2] 100 % of control | [3] 98 % of control

CCCCCC(C=O)C(O)(C(F)(F)F)C(F)(F)Cl (stereo not given)
inactive: [4] 96 % of control | [5] 91 % of control | endpoint: mean survival time, dose: 400.0 mg/kg/injection, schedule: Q04DX003 (ip), vehicle: Klucel (hydroxypropylcellulose) (HPC) 96 % of control

O=C(O)c1cc(Cl)c(C(=O)O)cc1Cl
inactive: [6] 96 % of control | [7] 102 % of control | [8] 105 % of control

O=C1C(=O)c2ccc(Br)cc2C(O)=C1/C=C/c1ccccc1
inactive: endpoint: mean survival time, dose: 50.0 mg/kg/injection, schedule: Q01DX001 (ip), vehicle: saline 104 % of control | [9] 101 % of control | [10] 103 % of control

Nc1ccc2c(c1)CN1C(=O)c3ccccc3C1=N2
inactive: endpoint: median survival time, dose: 12.5 mg/kg/injection, schedule: Q01DX009 (ip), vehicle: saline with Tween-80 111 % of control | endpoint: median survival time, dose: 25.0 mg/kg/injection, schedule: Q01DX009 (ip), vehicle: saline with Tween-80 115 % of control | endpoint: median survival time, dose: 50.0 mg/kg/injection, schedule: Q01DX009 (ip), vehicle: saline with Tween-80 116 % of control | endpoint: median survival time, dose: 100.0 mg/kg/injection, schedule: Q01DX009 (ip), vehicle: saline with Tween-80 108 % of control

COC(C)(C)O/N=C(\C[n+]1ccccc1)c1ccccc1
inactive: endpoint: mean survival time, dose: 12.5 mg/kg/injection, schedule: Q01DX009 (ip), vehicle: water 95 % of control | endpoint: mean survival time, dose: 25.0 mg/kg/injection, schedule: Q01DX009 (ip), vehicle: water 91 % of control | endpoint: mean survival time, dose: 50.0 mg/kg/injection, schedule: Q01DX009 (ip), vehicle: water 90 % of control

CCCCOCN(COCCCC)C(C)Cc1ccccc1 (stereo not given)
inactive: endpoint: mean survival time, dose: 12.5 mg/kg/injection, schedule: Q01DX009 (ip), vehicle: saline with Tween-80 94 % of control and 97 % of control | [11] 97 % of control and 102 % of control | [12] 93 % of control and 102 % of control | [1] 114 % of control and 95 % of control | [2] 123 % of control and 112 % of control

Cc1cc(C)nc(NS(=O)(=O)c2ccc(NCN3C(=O)c4ccccc4C3=O)cc2)n1
inactive: endpoint: mean survival time, dose: 100.0 mg/kg/injection, schedule: Q01DX001 (ip), vehicle: saline with Tween-80 101 % of control | [1] 96 % of control | endpoint: mean survival time, dose: 200.0 mg/kg/injection, schedule: Q01DX001 (ip), vehicle: saline with Tween-80 107 % of control | [2] 94 % of control | endpoint: mean survival time, dose: 400.0 mg/kg/injection, schedule: Q01DX001 (ip), vehicle: saline with Tween-80 107 % of control | [3] 90 % of control

COC1=C(C)C(=O)C2=C(C1=O)C(COC(N)=O)C1(OC)C3C(CN21)N3C(=O)c1ccccc1 (stereo not given)
inactive: endpoint: mean survival time, dose: 7.5 mg/kg/injection, schedule: Q01DX001 (ip), vehicle: acetone 106 % of control | endpoint: mean survival time, dose: 10.0 mg/kg/injection, schedule: Q01DX001 (ip), vehicle: acetone 112 % of control | endpoint: mean survival time, dose: 15.0 mg/kg/injection, schedule: Q01DX001 (ip), vehicle: acetone 112 % of control

CC(C)c1cc2ccccc2s1
inactive: [9] 96 % of control | [10] 102 % of control

O=C/C=C/c1ccc([N+](=O)[O-])cc1
inactive: [4] 90 % of control | [5] 90 % of control

COc1ccc(C(OC/C=C(\C)CCC=C(C)C)OC/C=C(\C)CCC=C(C)C)cc1
inactive: endpoint: mean survival time, dose: 12.5 mg/kg/injection, schedule: Q01DX009 (ip), vehicle: other 90 % of control | endpoint: mean survival time, dose: 25.0 mg/kg/injection, schedule: Q01DX009 (ip), vehicle: other 90 % of control | endpoint: mean survival time, dose: 50.0 mg/kg/injection, schedule: Q01DX009 (ip), vehicle: other 90 % of control | endpoint: mean survival time, dose: 100.0 mg/kg/injection, schedule: Q01DX009 (ip), vehicle: other 95 % of control | endpoint: mean survival time, dose: 200.0 mg/kg/injection, schedule: Q01DX009 (ip), vehicle: other 95 % of control

CC[C@H](C)c1occ2c(O)c(C(=O)O)c(=O)cc-2c1C
inactive: [9] 98 % of control | [10] 101 % of control

CC1CC2CCC1C2O (stereo not given)
inactive: [13] 98 % of control | [14] 91 % of control | [15] 87 % of control

Clc1ccc(Oc2ccc(Cl)cc2)cc1
inactive: [12] 94 % of control | [1] 100 % of control | [2] 105 % of control

CN(CCO)N=Nc1ccccc1
inactive: [13] 102 % of control | [14] 105 % of control

CN1Cc2c([nH]c3ccccc23)C(O)C1 (stereo not given)
inactive: [13] 98 % of control | [14] 106 % of control

CC(=O)c1ccc[n+](C)c1
inactive: endpoint: mean survival time, dose: 100.0 mg/kg/injection, schedule: Q04DX003 (ip), vehicle: saline 104 % of control | endpoint: mean survival time, dose: 200.0 mg/kg/injection, schedule: Q04DX003 (ip), vehicle: saline 104 % of control

CNS(=O)(=O)Cc1ccccc1
inactive: [6] 91 % of control | [7] 97 % of control | [8] 94 % of control

c1ccc(C2CC2c2ccccc2)cc1 (stereo not given)
inactive: [13] 100 % of control | [14] 96 % of control | [15] 98 % of control

CC(C)=CCC(O)C1=CC(=O)c2c(O)ccc(O)c2C1=O (stereo not given)
inactive: endpoint: mean survival time, dose: 7.5 mg/kg/injection, schedule: Q04DX003 (ip), vehicle: saline sonified 98 % of control | endpoint: mean survival time, dose: 15.0 mg/kg/injection, schedule: Q04DX003 (ip), vehicle: saline sonified 102 % of control | endpoint: mean survival time, dose: 30.0 mg/kg/injection, schedule: Q04DX003 (ip), vehicle: saline sonified 101 % of control

Cc1cc(=O)c2c(ccc3[nH]c(-c4ccco4)nc32)[nH]1
inactive: endpoint: mean survival time, dose: 100.0 mg/kg/injection, schedule: Q04DX002 (ip), vehicle: saline with Tween-80 95 % of control | endpoint: mean survival time, dose: 200.0 mg/kg/injection, schedule: Q04DX002 (ip), vehicle: saline with Tween-80 102 % of control | endpoint: mean survival time, dose: 400.0 mg/kg/injection, schedule: Q04DX002 (ip), vehicle: saline with Tween-80 91 % of control

O=c1cc(NCCCCCc2ccccc2)[nH]c(=O)[nH]1
inactive: endpoint: mean survival time, dose: 37.5 mg/kg/injection, schedule: Q01DX001 (ip), vehicle: saline with Tween-80 96 % of control | endpoint: mean survival time, dose: 75.0 mg/kg/injection, schedule: Q01DX001 (ip), vehicle: saline with Tween-80 100 % of control | endpoint: mean survival time, dose: 150.0 mg/kg/injection, schedule: Q01DX001 (ip), vehicle: saline with Tween-80 96 % of control

CC(C)(C)OC(=O)NC(CCC(=O)O)C(=O)OC(C)(C)C (stereo not given)
inactive: [1] 102 % of control | [2] 93 % of control | [3] 92 % of control

O=[N+]([O-])c1ccc2nc(Cl)sc2c1
inactive: [11] 102 % of control | [12] 103 % of control | [1] 100 % of control | [6] 86 % of control

CCC(C(=O)O)c1ccccc1 (stereo not given)
inactive: endpoint: mean survival time, dose: 100.0 mg/kg/injection, schedule: Q04DX003 (ip), vehicle: saline sonified 97 % of control | endpoint: mean survival time, dose: 200.0 mg/kg/injection, schedule: Q04DX003 (ip), vehicle: saline sonified 101 % of control

CC1OC(=O)C(C(C)C)NC(=O)C(C(C)C)OC(=O)C(C(C)C)NC(=O)C(C)OC(=O)C(C(C)C)NC(=O)C(C(C)C)OC(=O)C(C(C)C)NC(=O)C(C)OC(=O)C(C(C)C)NC(=O)C(C(C)C)OC(=O)C(C(C)C)NC1=O (stereo not given)
inactive: endpoint: mean survival time, dose: 1.25 mg/kg/injection, schedule: Q01DX009 (ip), vehicle: saline with Tween-80 109 % of control | endpoint: mean survival time, dose: 2.5 mg/kg/injection, schedule: Q01DX009 (ip), vehicle: saline with Tween-80 103 % of control and 107 % of control | endpoint: mean survival time, dose: 5.0 mg/kg/injection, schedule: Q01DX009 (ip), vehicle: saline with Tween-80 103 % of control and 110 % of control | endpoint: mean survival time, dose: 10.0 mg/kg/injection, schedule: Q01DX009 (ip), vehicle: saline with Tween-80 106 % of control | endpoint: mean survival time, dose: 20.0 mg/kg/injection, schedule: Q01DX009 (ip), vehicle: saline with Tween-80 112 % of control

CC[N+]1(Cc2ccccc2)CC2(CCCCC2)ON2C1CC(C)C2(C)C (stereo not given)
inactive: [11] 92 % of control | [12] 93 % of control

O=N[O-].[Co].[NH2-].[NH2-].[NH2-].[NH2-].[NH2-]
inactive: endpoint: mean survival time, dose: 12.5 mg/kg/injection, schedule: Q01DX009 (ip), vehicle: saline 103 % of control | endpoint: mean survival time, dose: 25.0 mg/kg/injection, schedule: Q01DX003 (ip), vehicle: saline 93 % of control | endpoint: mean survival time, dose: 25.0 mg/kg/injection, schedule: Q01DX009 (ip), vehicle: saline 103 % of control | endpoint: mean survival time, dose: 50.0 mg/kg/injection, schedule: Q01DX003 (ip), vehicle: saline 100 % of control | endpoint: mean survival time, dose: 50.0 mg/kg/injection, schedule: Q01DX009 (ip), vehicle: saline 105 % of control
